Experimental data: patent publication US9701631B2, “TIP60 inhibitors” (The Trustees Of The University Of Pennsylvania, priority 2010, dated 2017)

What was measured:
[1] = tested on: Treg suppression of T cell proliferation; test: Treg suppression assay in vitro (T cell proliferation, 3 days, CFSE dye, flow cytometry); format: cell-based; settings: for enhancement of suppression of Treg in vitro: 500x dilution of 10 mM solution (20 micromolar), FIG. 10; for percentage of proliferated cells: Treg:Teff=1:1
Text: FIGS. 8A-D are flow cytometry dataplots showing the enhancement of TIP60 inhibitor B7 suppression of Treg in vitro. Individual peaks reflect number of cells divisions under the standard test conditions (3 days), where the cell populations are dyed with CFSE (carboxyfluorescen diacetate, succimidyl ester). FIG. 8A are the data for DMSO without B7; FIG. 8B are the data for B7-1000×; FIG. 8C are the data for B7-4000×; and FIG. 8D are the data for B7-8000. In each case, the 1000×/4000×/8000× refers to the dilution factor of the B7, from an original 10 mM solution of B7; e.g, 1000× represents a solution diluted by a factor of 1000, so as to result in a 10 micromolar solution. The numbers in the upper left corner of the plot (e.g., 88, 81, 74, 65, and 37 of FIG. 8A) refer to the measured percentage of proliferated cells.
FIGS. 10A-E are flow cytometry dataplots showing the enhancement of TIP60 inhibitors B7 suppression of Treg in vitro. FIG. 10A are the data for DMSO without any B7-type inhibitor; FIG. 10B are the data for B7-500×; FIG. 10C are the data for B7A-500×; FIG. 10D are the data for B7B-500; and FIG. 10E are the data for B7C-500×. In each case, the 500× refers to the dilution factor of the B7/B7A/B7B/B7C, from an original 10 mM solution of the compound; e.g, 500× represents a solution diluted by a factor of 500, so as to result in a 20 micromolar solution.
Several exemplary compounds of the present invention were screened at 10 μg/ml in vitro, at varying Treg:T cell ratios, using standard cell proliferation techniques (3 days, using CSFE dyes). Such techniques are well understood by those skilled in the art. For example, see Akimova T, Ge G, Golovina T, Mikheeva T, Wang L, Riley J L, Hancock W W., “Histone/protein deacetylase inhibitors increase suppressive functions of human FOXP3+ Tregs,” Clin Immunol. 2010 September; 136(3):348-63; Tao R, Hancock W W., Resistance of FOXP3+ regulatory T cells to Nur77-induced apoptosis promotes allograft survival,” PLoS One. 2008 May 28; 3(5):e2321; Tao R, Wang L, Murphy K M, Fraser C C, Hancock W W., “Regulatory T cell expression of herpesvirus entry mediator suppresses the function of B and T lymphocyte attenuator-positive effector T cells.,” J. Immunol. 2008 May 15; 180(10):6649-55; and Tao R, de Zoeten E F, Ozkaynak E, Chen C, Wang L, Porrett P M, Li B, Turka L A, Olson E N, Greene M I, Wells A D, Hancock W W., “Deacetylase inhibition promotes the generation and function of regulatory T cells,” Nat. Med. 2007 November; 13(11):1299-307 for the protocols used herein. Each of these references is incorporated by reference herein, at least for this purpose.
T cell proliferation was unimpaired in the absence of Treg cells (see left panels in FIG. 8A-D), but was increasingly impaired at increasing Treg concentration (for example, in FIG. 8A, increasing Treg:Tcell ratio from 0:1 to 1:1 reduced proliferation from 88% to 37% under otherwise identical conditions). […] Efficacy was also seen at 1 μg/ml for some compounds.

FOXP3 = FOXP3 bound on chromatin in SZ-4 T cells (Western blot); format: cell-based; settings: FIG. 9
TIP60 = target: T1, TIP60 (Homo sapiens, UniProt Q92993); test: TIP60 activity by acetylation of TIP60 or its substrate FOXP3 in transfected 293T cells (Ac-K immunoprecipitation, Western blot); format: cell-based; settings: 4 hours
T1 construct: expressed in transfected cells; host or cells: 293T cells
T1 sequence (Q92993 whole entry, species assumed): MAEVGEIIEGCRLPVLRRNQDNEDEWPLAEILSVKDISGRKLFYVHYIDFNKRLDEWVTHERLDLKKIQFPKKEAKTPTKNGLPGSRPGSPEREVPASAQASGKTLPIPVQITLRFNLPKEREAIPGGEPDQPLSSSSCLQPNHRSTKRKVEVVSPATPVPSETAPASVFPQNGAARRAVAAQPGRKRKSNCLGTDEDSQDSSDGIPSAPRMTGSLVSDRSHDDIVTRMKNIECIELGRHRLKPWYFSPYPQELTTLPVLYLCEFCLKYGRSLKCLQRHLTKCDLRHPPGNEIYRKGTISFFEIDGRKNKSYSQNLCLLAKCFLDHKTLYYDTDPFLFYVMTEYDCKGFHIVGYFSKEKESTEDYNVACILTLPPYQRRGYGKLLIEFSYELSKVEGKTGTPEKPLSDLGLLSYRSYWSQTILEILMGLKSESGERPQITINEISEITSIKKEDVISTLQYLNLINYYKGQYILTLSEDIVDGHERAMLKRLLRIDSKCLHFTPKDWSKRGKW
Procedure: FIG. 11 illustrate the effect of B7G on TIP60. TIP60 activity was assessed by examining acetylation of TIP60 or its substrate FOXP3. Both TIP60 and FOXP3 were overexpressed in 293T cells. Acetylated proteins were first immunoprecipitated with the acetyl-lysine specific antibody Ac-K and then blotted with HRP conjugated antibodies to expression tags (HA for FOXP3 or FLAG for TIP60).
TIP60 is known to have acetyl transferase activity to acetylate itself (auto-acetylation) or substrates including FOXP3. To examine activity of B7G on TIP60, 293T cells were transfected with Flag-tagged TIP60 and HA-tagged FOXP3. 24 hours after transfection, cells were treated with various concentrations of B7G for 4 hours before cell lysates were collected. Acetylated proteins were precipitated by anti-acetyl lysine antibody Ac-K. FOXP3 and TIP60 in the lysate or precipitated by Ac-K antibody were identified by anti-HA-HRP and anti-FLAG-HRP respectively.

[2] = tested on: dextran sodium sulfate (DSS) model of colitis; test: DSS model of established colitis in mice, remedial treatment; format: in vivo
Procedure: FIGS. 12A-C are the result of experiments described in Example 5. […] FIG. 12C provide graphical data for weight loss, bleeding score, and stool consistency (i.e., higher score reflects higher levels of diarrhea), wherein the mice were first subjected to DSS irritation, then subset populations were remedially treated after 8 days with the compound having Structure B7.
In a first test, the effects of exposure to dextran sodium sulfate (DSS) were evaluated, which results in a partially CD4-dependent inflammatory model of colitis, in wildtype (WT) versus TIP60dn C57BL/6 mice (8 mice/group).
Data were also generated using the compound of Structure B7 in the DSS model, in an experiment designed to test the ability of TIP60 inhibitor therapy to reverse established colitis by waiting until mice had ˜15% weight loss. In marked contrast to use of carrier DMSO alone, TIP60 inhibitor therapy (2 mg/kg/d, i.p.) reversed weight loss (p<0.01), blood in the stool (p<0.01) and diarrhea (p<0.005) (see FIG. 12C) and maintained colon length (p<0.01).

[3] = 2 mg/kg/d i.p., vs carrier DMSO, p<0.01

**Q.** Which “enhancement of suppression of Treg in vitro” value (shortened to “enhancement”) [1] does the source give for `O=C(Nc1ccc(Cl)cc1)C1CC(=O)N(CCc2ccc(Cl)cc2)C1` (stereo not drawn) [B7A] here?
**A.** enhancement

**Q.** Which “enhancement” value [1] does the source give for `COc1ccc(NC(=O)C2CC(=O)N(CCc3ccc(Cl)cc3)C2)cc1` (stereo not drawn) [B7B] here?
**A.** enhancement

**Q.** For `Cc1ccc2cc(NC(=O)C3CC(=O)N(CCc4ccc(Cl)cc4)C3)ccc2n1` (stereo not drawn) [B7C], which “FOXP3 bound on chromatin” value (FOXP3) is on record?
**A.** intervening with FOXP3 bound on chromatin

**Q.** What about the “enhancement” value [1] of the same compound?
**A.** enhancement

**Q.** With `COc1ccc(CCN2CC(C(=O)Nc3ccc(F)c(Cl)c3)CC2=O)cc1OC` (stereo not drawn) [B7G] as the compound, how does the “Acetylated FOXP3 (HA-HRP blot of Ac-K precipitated proteins)” value (TIP60; 32 μg/ml) read?
**A.** reduced significantly

**Q.** And the “Acetylated TIP60 (FLAG-HRP blot of Ac-K precipitated proteins)” value (TIP60; 32 μg/ml)?
**A.** reduced significantly

**Q.** And the TIP60 auto-acetylation (TIP60; lower concentration than 32 μg/ml)?
**A.** slightly increase

**Q.** And the “FOXP3 expression level in total cell lysate” value (TIP60; various concentrations)?
**A.** not significantly affected

**Q.** What about the “TIP60 expression level in total cell lysate” value (TIP60; various concentrations) of the same compound?
**A.** not significantly affected

**Q.** Which weight loss ([2]; 2 mg/kg/d i.p., started at ~15% weight loss, vs carrier DMSO, p<0.01) does the source give for `Cc1ccc(NC(=O)C2CC(=O)N(CCc3ccc(Cl)cc3)C2)cc1` (stereo not drawn) [B7] here?
**A.** reversed

**Q.** What about the diarrhea ([2]; 2 mg/kg/d i.p., vs carrier DMSO, p<0.005) of the same compound?
**A.** reversed

**Q.** And the “blood in the stool” value [2, 3]?
**A.** reversed

**Q.** And the colon length [2, 3]?
**A.** maintained

**Q.** And the “colon length relative to that of an unstressed control animal” value ([2]; single animal, 3% DSS then B7)?
**A.** about 94%

**Q.** And the “spleen size relative to control animal” value ([2]; single remediated animal, 3% DSS then B7)?
**A.** comparable in size to that of the control

**Q.** What about the “enhancement” value [1] of the same compound?
**A.** enhancement

**Q.** What about the “T cell proliferation in the absence of Treg cells” value ([1]; Treg:Tcell 0:1, left panels FIG. 8A-D) of the same compound?
**A.** unimpaired

**Q.** And the “percentage of proliferated cells” value ([1]; FIG. 8B (B7-1000x dilution of 10 mM, 10 μM), highest B7 dosage)?
**A.** 25%

**Q.** What about the “percentage of proliferated cells” value ([1]; FIG. 8C (B7-4000x dilution of 10 mM), middle B7 dosage) of the same compound?
**A.** 30%

**Q.** And the “percentage of proliferated cells” value ([1]; FIG. 8D (B7-8000x dilution of 10 mM), lowest B7 dosage)?
**A.** 37%

**Q.** And the “Treg activity (decreasing Tcell proliferation)” value ([1]; dose dependent, varying Treg:T cell ratios)?
**A.** enhanced the Treg activity
